From ChEMBL document CHEMBL1145829, “Estrogen receptor modulators: identification and structure-activity relationships of potent ERalpha-selective tetrahydroisoquinoline ligands” (J Med Chem, 2003)

Tests used:
[1] = Total clearance value was tested after peroral administration (5 mg/kg ) in conscious rat; type: ADME, organism-based; conditions: in vivo, po
Rattus norvegicus = experiment: Maximal blood concentration after peroral administration (dose normalized) (5 mg/kg) in conscious rat; type: ADME, organism-based; design: dose 5 mg/kg, route oral; conditions: in vivo, po
[2] = Terminal half life was tested after peroral administration (5 mg/kg) in conscious rat; type: ADME, organism-based; conditions: in vivo, po
Estrogen receptor beta [3] = molecular target: T1, Estrogen receptor beta (Homo sapiens, UniProt Q92731)
Estrogen receptor beta [4] = molecular target: T1, Estrogen receptor beta; remark: listed apart in the source
MCF7 [5] = tested on: MCF7
MCF7 [6] = experiment: cells; conditions: Homo sapiens
MCF7 [7] = experiment: cells; conditions: Homo sapiens; remark: listed apart in the source
in vivo = conditions: rat, po, 5 mg/kg
MCF7 [8] = tested on: MCF7; remark: listed apart in the source
Estrogen receptor [9] = molecular target: T2, Estrogen receptor (Homo sapiens, UniProt P03372)
T2 sequence (P03372 whole entry): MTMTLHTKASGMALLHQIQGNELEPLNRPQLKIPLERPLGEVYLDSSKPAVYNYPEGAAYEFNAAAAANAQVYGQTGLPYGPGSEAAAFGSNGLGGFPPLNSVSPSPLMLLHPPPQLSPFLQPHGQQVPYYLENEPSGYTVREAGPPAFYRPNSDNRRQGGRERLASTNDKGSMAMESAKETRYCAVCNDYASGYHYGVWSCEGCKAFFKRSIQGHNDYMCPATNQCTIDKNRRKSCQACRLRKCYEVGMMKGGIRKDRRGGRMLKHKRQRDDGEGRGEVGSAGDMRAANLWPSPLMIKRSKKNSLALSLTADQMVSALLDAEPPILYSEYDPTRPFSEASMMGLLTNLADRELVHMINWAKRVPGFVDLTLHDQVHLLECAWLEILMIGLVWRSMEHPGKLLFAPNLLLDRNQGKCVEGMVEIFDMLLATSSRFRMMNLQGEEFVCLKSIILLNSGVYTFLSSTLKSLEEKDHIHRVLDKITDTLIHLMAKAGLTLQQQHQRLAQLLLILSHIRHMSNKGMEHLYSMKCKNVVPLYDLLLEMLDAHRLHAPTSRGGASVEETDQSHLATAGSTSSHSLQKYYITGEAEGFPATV

Estrogen receptor [10] = molecular target: T2, Estrogen receptor; remark: listed apart in the source
Estrogen receptor [11] = molecular target: T2, Estrogen receptor; experiment: Inhibition of estrogen receptor alpha mediated transcriptional activation

SMILES | CL/F [1] | Cmax (Rattus norvegicus) | half-life [2] | IC50 (Estrogen receptor beta [3]) | IC50 (Estrogen receptor beta [4]) | Agonism (MCF7 [5]) | EC50 (MCF7 [6]) | IC50 (MCF7 [7]) | bioavailability (in vivo) | EC50 (MCF7 [8]) | IC50 (Estrogen receptor [9]) | IC50 (Estrogen receptor [10]) | IC50 (Estrogen receptor [11])
CC1(c2ccc(OCCN3CCCC3)cc2)c2ccc(O)cc2CCN1c1cccc(O)c1 (centres undefined) | 130 mL/min/kg | 5.3 nM | 5.9 h | 33 nM | 190 nM | 15% | < 0.5 nM | 2 nM | 15% | – | – | – | –
CCC(=C(c1ccc(O)cc1)c1ccc(OCCN(C)C)cc1)c1ccccc1 | – | – | – | – | – | 31% | 0.12 nM | 8.5 nM | – | – | – | – | –
CC/C(=C(\c1ccccc1)c1ccc(OCCN(C)C)cc1)c1ccccc1 [TAMOXIFEN] | – | – | – | – | – | – | 10 nM | – | – | – | – | – | –
Oc1ccc2c(c1)CCN(c1ccccc1)C2c1ccc(OCCN2CCCCC2)cc1 (centres undefined) | 51.9 mL/min/kg | 31 nM | 3.5 h | – | – | – | – | – | 42% | < 0.15 pnM | – | – | –
Cl.Oc1ccc2c(c1)CC[C@H](c1ccccc1)[C@@H]2c1ccc(OCCN2CCCC2)cc1 | 55.7 mL/min/kg | 15.5 nM | 5.2 h | – | – | – | 0.02 nM | – | 38% | – | – | – | –
CC(C)c1ccc(N2CCc3cc(O)ccc3C2(C)c2ccc(OCCN3CCCC3)cc2)cc1 (centres undefined) | – | – | – | 4970 nM | 1970 nM | 10% | < 0.1 nM | 3.2 nM | – | – | 44 nM | – | –
Oc1ccc2c(c1)CCN(c1ccccc1)C2c1ccc(OCCN2CCCC2)cc1 (centres undefined) | 55 mL/min/kg | 55 nM | 3 h | 291 nM | 166 nM | 34% | < 0.1 nM | 29 nM | 73% | – | 21 nM | 10.7 nM | –
CC1(c2ccc(OCCN3CCCCC3)cc2)c2ccc(O)cc2CCN1c1cccc(O)c1 (centres undefined) | – | – | – | 47 nM | 304 nM | 10% | < 0.1 nM | 2 nM | – | – | 34 nM | – | –
CN(C)c1cccc(N2CCc3cc(O)ccc3C2(C)c2ccc(OCCN3CCCCC3)cc2)c1 (centres undefined) | – | – | – | 2180 nM | 3110 nM | 18% | < 0.5 nM | 36 nM | – | – | 71 nM | 19.8 nM | –
Cc1ccc(N2CCc3cc(O)ccc3C2(C)c2ccc(OCCN3CCCC3)cc2)cc1 (centres undefined) | – | – | – | 448 nM | 354 nM | 14% | < 0.1 nM | 4.1 nM | – | – | 31 nM | – | 3.5 nM
CC1(c2ccc(OCCN3CCCCCC3)cc2)c2ccc(O)cc2CCN1c1ccccc1 (centres undefined) | – | – | – | 80 nM | 200 nM | 13% | < 0.1 nM | 6 nM | – | – | 56 nM | – | –
CN(C)c1cccc(N2CCc3cc(O)ccc3C2(C)c2ccc(OCCN3CCCC3)cc2)c1 (centres undefined) | – | – | – | 2970 nM | 2200 nM | 19% | < 0.5 nM | 32 nM | – | – | 94 nM | 19 nM | –
CC1(c2ccc(OCCN3CCCC3)cc2)c2ccc(O)cc2CCN1c1cccc(Cl)c1 (centres undefined) | – | – | – | 106 nM | 272 nM | 20% | < 0.1 nM | 7 nM | – | – | 66 nM | – | –
Cl.O=C(c1ccc(OCCN2CCCCC2)cc1)c1c(-c2ccc(O)cc2)sc2cc(O)ccc12 [RALOXIFENE HYDROCHLORIDE] | 158 mL/min/kg | 7.5 nM | 1.7 h | – | – | – | 0.02 nM | – | – | – | – | – | –
CC1(c2ccc(OCCN3CCCCC3)cc2)c2ccc(O)cc2CCN1c1cccc(Cl)c1 (centres undefined) | – | – | – | 159 nM | 284 nM | 18% | < 0.1 nM | 8 nM | – | – | 49 nM | – | –
CC1(c2ccc(OCCN3CCCC3)cc2)c2ccc(O)cc2CCN1c1ccccc1 (centres undefined) | – | – | – | 83 nM | 227 nM | – | – | – | – | – | 38 nM | – | –
Oc1ccc2c(c1)CCN(c1ccccc1)C2c1ccc(F)cc1 (centres undefined) | – | – | – | – | – | – | 1 nM | – | – | – | – | – | –
CC1(c2ccc(OCCN3CCCCC3)cc2)c2ccc(O)cc2CCN1c1ccc(Cl)cc1 (centres undefined) | – | – | – | 552 nM | 396 nM | 8% | < 0.1 nM | 5.2 nM | – | – | 35 nM | – | –
CC(C)c1ccc(N2CCc3cc(O)ccc3C2(C)c2ccc(OCCN3CCCCC3)cc2)cc1 (centres undefined) | – | – | – | 4780 nM | 3690 nM | 14% | < 0.1 nM | 3.4 nM | – | – | 71 nM | – | –
Cc1ccc(N2CCc3cc(O)ccc3C2(C)c2ccc(OCCN3CCCCC3)cc2)cc1 (centres undefined) | – | – | – | 486 nM | 421 nM | 9% | < 0.1 nM | 4 nM | – | – | 28 nM | 2.9 nM | –
CC1(c2ccc(OCCN3CCCCC3)cc2)c2ccc(O)cc2CCN1c1ccccc1 (centres undefined) | 116 mL/min/kg | 5.2 nM | 5.2 h | 83 nM | 104 nM | 13% | < 0.1 nM | 4 nM | 23% | – | 29 nM | – | –
CC1(c2ccc(OCCN3CCCCC3)cc2)c2ccc(O)cc2CCN1c1ccc(F)cc1 (centres undefined) | 64.9 mL/min/kg | 16 nM | 7.1 h | 92 nM | 317 nM | 13% | – | – | 56% | – | – | – | –
CC1(c2ccc(OCCN3CCCC3)cc2)c2ccc(O)cc2CCN1c1ccc(F)cc1 (centres undefined) | 45.2 mL/min/kg | 20 nM | 8.6 h | 82 nM | 204 nM | 16% | < 0.1 nM | 3.5 nM | 53% | – | 31 nM | – | –
CC1(c2ccc(OCCN3CCCC3)cc2)c2ccc(O)cc2CCN1c1ccc(Cl)cc1 (centres undefined) | – | – | – | 531 nM | 302 nM | 10% | < 0.1 nM | 6.2 nM | – | – | 27 nM | 3.3 nM | –
CC(C)c1cccc(N2CCc3cc(O)ccc3C2(C)c2ccc(OCCN3CCCCC3)cc2)c1 (centres undefined) | – | – | – | 492 nM | 1100 nM | 16% | < 0.4 nM | 27 nM | – | – | 46 nM | 16.1 nM | –
CC1(c2ccc(OCCN3CCCC3)cc2)c2ccc(O)cc2CCN1c1cccc(F)c1 (centres undefined) | – | – | – | 198 nM | 123 nM | 5% | < 0.1 nM | 3.8 nM | – | – | 39 nM | – | –
